Reference: EP2140864A2 (H. Lundbeck A/S, priority 2001, dated 2002)
Where two headings read alike, the source gives them in different places. Marks after values point to notes of the source that are not given here.

What was measured:
[1] = tested on: Male albino Sprague-Dawley rats; experiment: Rat Social Interaction Test (SIT); assay type: in vivo
[2] = tested on: Male albino Sprague-Dawley rats; experiment: Rat Social Interaction Test (SIT); assay type: in vivo; details: 5 mg/kg i.p., 1 hour prior to testing
Procedure: Rats were allowed to acclimate to the animal care facility for 5 days and were housed singly for 5 days prior to testing. Animals were handled for 5 minutes per day. The design and procedure for the Social Interaction Test was carried out as previously described by Kennett, et al. (1997). On the test day, weight matched pairs of rats (± 5%), unfamiliar to each other, were given identical treatments and returned to their home cages. Animals were randomly divided into 5 treatment groups, with 5 pairs per group, and were given one of the following i.p. treatments: Example 92 (10, 30 or 100 mg/kg), vehicle (1 ml/kg) or chlordiazepoxide (5 mg/kg). Dosing was 1 hour prior to testing. Rats were subsequently placed in a white perspex test box or arena (54 x 37 x 26 cm), whose floor was divided up into 24 equal squares, for 15 minutes. An air conditioner was used to generate background noise and to keep the room at approximately 74°F. All sessions were videotaped using a JVC camcorder (model GR-SZ1, Elmwood Park, NJ) with either TDK (HG ultimate brand) or Sony 30 minute videocassettes. All sessions were conducted between 1:00 - 4:30 P.M. Active social interaction, defined as grooming, sniffing, biting, boxing, wrestling, following and crawling over or under, was scored using a stopwatch (Sportsline model no. 226, 1/100 sec. discriminability). The number of episodes of rearing (animal completely raises up its body on its hind limbs), grooming (licking, biting, scratching of body), and face washing (i.e. hands are moved repeatedly over face), and number of squares crossed were scored. Passive social interaction (animals are lying beside or on top of each other) was not scored. All behaviors were assessed later by an observer who was blind as to the treatment of each pair. At the end of each test, the box was thoroughly wiped with moistened paper towels.
Male albino Sprague-Dawley rats (Taconic Farms, NY) were housed in pairs under a 12 hr light dark cycle (lights on at 0700 hrs.) with free access to food and water.
Example 92 was dissolved in 100% DMSO (Sigma Chemical Co., St. Louis, MO). Chlordiazepoxide (purchased from Sigma Chemical Co., St. Louis, MO) was dissolved in double distilled water. The vehicle consisted of 50% DMSO (v/v). All drug solutions were made up 10 minutes prior to injection and the solutions were discarded.
Example 34 was dissolved in 5% lactic acid, v/v. The vehicle consisted of 100% dimethylacetamide (DMA) and this was used to make up all drug solutions. All drug solutions were made up fresh each day and any unused solutions were discarded at the end of the test day. The volume of drug solution administered was 1 ml/kg.
The social interaction data (time interacting, rearing and squares crossed) were subjected to a randomized, one-way ANOVA and post hoc tests conducted using the Student-Newman-Keuls test. The data were subjected to a test of normality (Shapiro-Wilk test). The data were analyzed using the GBSTAT program, version 6.5 (Dynamics Microsystems, Inc., Silver Spring, MD, 1997). All data are presented as means ± S.E.M.

human GAL1 receptor = biological target: T1, human GAL1 receptor (Homo sapiens, UniProt P47211); experiment: Radioligand binding at cloned human GAL1 receptor; details: read-out: Ki GalR1
T1 construct: expressed in transfected cells
T1 sequence (P47211 1-349): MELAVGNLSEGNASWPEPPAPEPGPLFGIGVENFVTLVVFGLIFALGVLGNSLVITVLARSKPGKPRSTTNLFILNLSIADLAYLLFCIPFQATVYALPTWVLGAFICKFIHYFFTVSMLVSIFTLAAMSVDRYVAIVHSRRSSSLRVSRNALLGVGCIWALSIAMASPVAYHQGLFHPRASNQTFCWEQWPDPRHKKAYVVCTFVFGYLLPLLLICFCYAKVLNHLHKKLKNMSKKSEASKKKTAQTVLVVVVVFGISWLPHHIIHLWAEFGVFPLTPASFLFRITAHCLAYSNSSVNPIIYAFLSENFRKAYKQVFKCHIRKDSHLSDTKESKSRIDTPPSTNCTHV
Procedure: The binding properties of the pyrimidines of the present invention were evaluated at the cloned human galanin receptors, GAL1, GAL2, and GAL3, using protocols described herein. […]
(§1) LM(tk-) cells were stably transfected with the human GAL1 or GAL3 receptor. CHO cells were stably transfected with the human GAL2 receptor.
(§2) cDNAs for the human and rat GAL1, and human and rat GAL3 receptors were transfected with a G-418 resistant gene into the mouse fibroblast LM(tk-) cell line by a calcium phosphate transfection method (Cullen, 1987). Stably transfected cells were selected with G-418. Human and rat GAL2 receptors were similarly transfected into CHO cells.
(§3) Membranes were harvested from stably transfected LM(tk-) cells. Adherent cells were washed twice in ice-cold phosphate buffered saline (138 mM NaCl, 8.1 mM Na2HPO4, 2.5 mM KCl, 1.2 mM KH2PO4, 0.9 mM CaCl2, 0.5 mM MgCl2, pH 7.4) and lysed by sonication in ice-cold sonication buffer (20 mM Tris-HCl, 5 mM EDTA, pH 7.7). Large particles and debris were cleared by low speed centrifugation (200 x g, 5 min, 4°C). Membranes were collected from the supernatant fraction by centrifugation (32,000 x g, 18 min, 4°C), washed with ice-cold hypotonic buffer, and collected again by centrifugation (32,000 x g, 18 min, 4°C). The final membrane pellet was resuspended by sonication into a small volume of ice-cold binding buffer (-1 ml for every 5 plates: 10 mM NaCl, 20 mM HEPES, 0.22 mM KH2PO4, 1.26 mM CaCl2, 0.81 mM MgSO4, pH 7.4). Protein concentration was measured by the Bradford method (Bradford, 1976) using Bio-Rad Reagent, with bovine serum albumin as a standard. Membranes were held on ice for up to one hour and used fresh, or flash frozen and stored in liquid nitrogen. Membranes were prepared similarly from CHO cells.
(§4) Galanin Recentors: Binding assays were performed according to the following published methods: human GAL3 (PCT International Publication No. WO 98/15570), human GAL1 (PCT International Publication No. WO 95/2260), human GAL2 (PCT International Publication No. WO 97/26853).
(§5) Binding data were analyzed using nonlinear regression and statistical techniques available in the GraphPAD Prism package (San Diego, CA). Enzymatic assay data were derived from a standard curve of reference compound data.

human GAL3 receptor = biological target: T2, human GAL3 receptor (Homo sapiens, UniProt O60755); experiment: Radioligand binding at cloned human GAL3 receptor; details: cloned human receptor, read-out: Ki GalR3
T2 construct: expressed in transfected cells
T2 sequence (O60755 1-368): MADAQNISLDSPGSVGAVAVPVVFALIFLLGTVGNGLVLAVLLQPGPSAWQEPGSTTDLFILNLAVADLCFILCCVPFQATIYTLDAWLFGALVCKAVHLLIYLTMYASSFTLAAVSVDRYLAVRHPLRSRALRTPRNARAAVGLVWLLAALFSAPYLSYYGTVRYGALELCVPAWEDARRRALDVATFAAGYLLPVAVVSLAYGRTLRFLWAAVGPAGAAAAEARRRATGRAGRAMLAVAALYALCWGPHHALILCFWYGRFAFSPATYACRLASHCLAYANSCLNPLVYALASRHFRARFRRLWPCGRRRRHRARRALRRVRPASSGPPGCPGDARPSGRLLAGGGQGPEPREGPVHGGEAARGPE
Summary of the method: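 Membranes from LM(tk-) cells stably expressing human GAL3, prepared in binding buffer (HEPES-based, pH 7.4), used for radioligand binding. Solvent at final assay concentration: 3% DMSO for indolones, 1% ethanol/0.09% pluronic F-127 for pyrimidines. Binding data analysed by nonlinear regression.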

human GAL2 receptor = biological target: T3, human GAL2 receptor (Homo sapiens, UniProt O43603); experiment: Radioligand binding at cloned human GAL2 receptor; details: read-out: Ki GalR2
T3 construct: expressed in transfected cells
T3 sequence (O43603 1-387): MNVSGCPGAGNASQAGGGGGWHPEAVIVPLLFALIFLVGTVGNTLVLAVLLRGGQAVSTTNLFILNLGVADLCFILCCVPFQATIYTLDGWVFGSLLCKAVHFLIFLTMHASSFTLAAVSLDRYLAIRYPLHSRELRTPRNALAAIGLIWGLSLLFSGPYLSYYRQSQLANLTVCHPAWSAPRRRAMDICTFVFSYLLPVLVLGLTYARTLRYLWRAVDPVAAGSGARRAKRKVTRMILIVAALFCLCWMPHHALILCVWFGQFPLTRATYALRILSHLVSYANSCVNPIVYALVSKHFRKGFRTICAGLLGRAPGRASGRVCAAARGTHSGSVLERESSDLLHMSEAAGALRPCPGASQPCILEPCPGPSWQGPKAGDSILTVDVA
Procedure: The binding properties of the pyrimidines of the present invention were evaluated at the cloned human galanin receptors, GAL1, GAL2, and GAL3, using protocols described herein.
The binding properties of the indolones of the present invention were evaluated at the cloned human galanin receptors, GAL1, GAL2, and GAL3, using protocols described herein.
as §1, §2, §3, §4, §5

[3] = 5 mg/kg p.o., one hour before test

## CNC1=Nc2ccc(Cl)cc2C(c2ccccc2)=[N+]([O-])C1 [Chlordiazepoxide, chlordiazepoxide, reference compound]
[1]; 5 mg/kg i.p., 1 hour prior to testing
  Rearings: 30 ± 2
[1]; 5 mg/kg i.p., 1 hour prior to testing, unfamiliar rats, 15 minute test
  Social Interaction: 188 ± 15^b sec
[1]; [3]
  Grooming bouts: 5.3 ± 0.7
  Rearing: 35 ± 2
  Squares Crossed: 265 ± 30
[1]; 5 mg/kg p.o., one hour before test, unfamiliar cage mates in a familiar arena
  Social Interaction: 122 ± 18^S sec
[2]
  Grooming bouts: 7.3 ± 1.3
  Squares Crossed: 287 ± 28

## Cc1ccc(N=C2C(=O)N(c3ccccc3)c3ccccc32)cc1 [Example 96]
Human GAL1 receptor; indolones
  Ki: > 10000 nM
Human GAL3 receptor; indolones
  Ki: 111 nM
Human GAL2 receptor; indolones
  Ki: > 10000 nM

## CCOc1ccc(N=C2C(=O)N(c3ccccc3)c3ccccc32)cc1 [Example 101, 3-[(4-ETHOXYPHENYL)IMINO]-1-PHENYL-1,3-DIHYDRO-2H-INDOL-2-ONE]
Human GAL1 receptor; indolones
  Ki: > 10000 nM
Human GAL3 receptor; indolones
  Ki: 305 nM
Human GAL2 receptor; indolones
  Ki: > 10000 nM

## Cc1ccc(Nc2cc(N3CCCCC3)nc(N3CCN(c4c(C)cccc4C)CC3)n2)cc1 [Example 27]
Human GAL1 receptor; pyrimidines
  Ki: 2690 nM
Human GAL3 receptor; pyrimidines
  Ki: 63 nM
Human GAL2 receptor; pyrimidines
  Ki: 272 nM

## CN(C)c1cc(NC2CC3CCC2(C)C3(C)C)nc(Nc2ccccc2)n1 (centres unmarked) [Example 70]
Human GAL1 receptor; pyrimidines
  Ki: > 5000 nM
Human GAL3 receptor; pyrimidines
  Ki: 476 nM
Human GAL2 receptor; pyrimidines
  Ki: 944 nM

## Cc1ccc(Nc2cc(N3CCCCC3)nc(NC(C)Cc3c[nH]c4ccccc34)n2)cc1 (centres unmarked) [Example 20]
Human GAL1 receptor; pyrimidines
  Ki: > 5000 nM
Human GAL3 receptor; pyrimidines
  Ki: 164 nM
Human GAL2 receptor; pyrimidines
  Ki: > 5000 nM

## Cc1ccc(Nc2cc(N(C)C)nc(N3CCOC(c4ccccc4)C3)n2)cc1 (centres unmarked) [Example 83]
Human GAL1 receptor; pyrimidines
  Ki: > 5000 nM
Human GAL3 receptor; pyrimidines
  Ki: 160 nM
Human GAL2 receptor; pyrimidines
  Ki: > 5000 nM

## CC1CCC(Nc2cc(N(C)C)nc(Nc3ccccc3)n2)CC1 (centres unmarked) [Example 67]
Human GAL1 receptor; pyrimidines
  Ki: > 5000 nM
Human GAL3 receptor; pyrimidines
  Ki: 752 nM
Human GAL2 receptor; pyrimidines
  Ki: > 5000 nM

## FC(F)(F)c1cccnc1N1CCN(c2nc(NC3CC4CCC3C4)cc(N3CCCCC3)n2)CC1 (centres unmarked) [Example 36]
Human GAL1 receptor; pyrimidines
  Ki: 442 nM
Human GAL3 receptor; pyrimidines
  Ki: 93 nM
Human GAL2 receptor; pyrimidines
  Ki: 90 nM

## O=C1C(=Nc2ccc(F)cc2)c2ccccc2N1c1ccccc1 [Example 99, 3-[(4-FLUOROPHENYL)IMINO]-1-PHENYL-1,3-DIHYDRO-2H-INDOL-2-ONE]
Human GAL1 receptor; indolones
  Ki: > 10000 nM
Human GAL3 receptor; indolones
  Ki: 229 nM
Human GAL2 receptor; indolones
  Ki: > 10000 nM

## COc1ccc(N=C2C(=O)N(c3ccccc3)c3ccccc32)cc1 [Example 102, 3-[(4-METHOXYPHENYL)IMINO]-1-PHENYL-1,3-DIHYDRO-2H-INDOL-2-ONE]
Human GAL1 receptor; indolones
  Ki: > 10000 nM
Human GAL3 receptor; indolones
  Ki: 429 nM
Human GAL2 receptor; indolones
  Ki: > 10000 nM

## CC(C)N1C(=O)C(=Nc2ccc(Br)cc2)c2ccccc21 [Example 107, 3-[(4-BROMOPHENYL)IMINO]-1-ISOPROPYL-1,3-DIHYDRO-2H-INDOL-2-ONE]
Human GAL1 receptor; indolones
  Ki: > 10000 nM
Human GAL3 receptor; indolones
  Ki: 126 nM
Human GAL2 receptor; indolones
  Ki: > 10000 nM

## CN(C)c1cc(NC2CCC(C(C)(C)C)CC2)nc(Nc2ccccc2)n1 (centres unmarked) [Example 68]
Human GAL1 receptor; pyrimidines
  Ki: > 5000 nM
Human GAL3 receptor; pyrimidines
  Ki: 164 nM
Human GAL2 receptor; pyrimidines
  Ki: 2150 nM

## Cc1ccc(Nc2cc(N(C)C)nc(N3CCN(c4ncccc4C(F)(F)F)CC3)n2)cc1 [Example 88]
Human GAL1 receptor; pyrimidines
  Ki: 2190 nM
Human GAL3 receptor; pyrimidines
  Ki: 39 nM
Human GAL2 receptor; pyrimidines
  Ki: 355 nM

## Cc1ccc(Nc2cc(N3CCCCC3)nc(N(C)c3ccc(C)cc3)n2)cc1 [Example 7]
Human GAL1 receptor; pyrimidines
  Ki: 1110 nM
Human GAL3 receptor; pyrimidines
  Ki: 177 nM
Human GAL2 receptor; pyrimidines
  Ki: 775 nM

## Cc1ccc(Nc2cc(N3CCCCC3)nc(N3CCCC3)n2)cc1 [Example 38]
Human GAL1 receptor; pyrimidines
  Ki: 2900 nM
Human GAL3 receptor; pyrimidines
  Ki: 320 nM
Human GAL2 receptor; pyrimidines
  Ki: 516 nM

## Cc1ccc(Nc2cc(N(C)C)nc(Nc3ccccc3)n2)cc1Cl [Example 62]
Human GAL1 receptor; pyrimidines
  Ki: > 5000 nM
Human GAL3 receptor; pyrimidines
  Ki: 736 nM
Human GAL2 receptor; pyrimidines
  Ki: > 5000 nM
